{"source": "paper PMC12347391", "about": "“Sulforaphane-Rich Broccoli Sprout Extract Promotes Hair Regrowth in an Androgenetic Alopecia Mouse Model via Enhanced Dihydrotestosterone Metabolism” (International Journal of Molecular Sciences, 2025)", "key": {"Akr1c21": {"test_system": "Akr1c21", "experiment": "Western blot of liver tissue", "assay_type": "in vivo, C57BL/6J mice", "conditions": "15 days post-treatment, minoxidil 1% topical, finasteride 1 mg/kg oral", "procedure": "(§1) To assess protein expression levels in skin and liver tissues, samples were lysed using M-PER^TM Mammalian Protein Extraction Reagent (Thermo Fisher Scientific) supplemented with a 1× working concentration of Xpert Protease Inhibitor Cocktail Solution (GenDEPOT, Barker, TX, USA), which included 50 μM PMSF, 10 μM Pepstatin A, 20 μM Leupeptin, 100 μM Benzamidine, and 50 μM Bestatin. The lysates were incubated on ice for 30 min and centrifuged at 12,000× g for 10 min at 4 °C to remove debris. The supernatants were collected, and total protein concentrations were determined using the Pierce^TM BCA Protein Assay Kit (Thermo Fisher Scientific).\n(§2) Equal amounts of protein (20–30 μg) were loaded onto 10% SDS–polyacrylamide gels and electrophoresed using a Bio-Rad Mini-PROTEAN Tetra System with the Tris–Glycine–SDS running buffer. A pre-stained molecular weight marker (Precision Plus Protein^TM Dual Color Standards, Bio-Rad) was used as a reference. Proteins were then transferred to PVDF membranes (Immobilon®-P, Millipore, Burlington, MA, USA) using the wet transfer method with the Tris–Glycine buffer containing 20% methanol at 0.2 A for 120 min at 4 °C.\n(§3) Membranes were blocked with 5% skim milk in TBST buffer (20 mM Tris–HCl, 150 mM NaCl, 0.2% Tween 20, pH 7.4) for 1 h at room temperature and incubated overnight at 4 °C with one of the following primary antibodies diluted at 1:1000: anti-HSP90 (Santa Cruz Biotechnology, sc-13119, Dallas, TX, USA), anti-β-catenin (Cell Signaling Technology, #8480S, Danvers, MA, USA), anti-Lef-1 (Cell Signaling Technology, #2230S, Danvers, MA, USA), anti-Akr1c21 (Invitrogen, PA5-36572, Carlsbad, CA, USA), or anti-Dhrs9 (MyBioSource, MBS9125625, San Diego, CA, USA). Each antibody was applied to separate membranes to avoid cross-reactivity and ensure target specificity.\n(§4) After primary antibody incubation, membranes were washed four times for 10 min each with TBST at 50 rpm on a shaker, followed by incubation with HRP-conjugated secondary antibodies (Thermo Fisher Scientific) diluted 1:3000 for 1 h at room temperature. The membranes were then washed three times for 5 min each with TBST under the same conditions. Protein bands were visualized using the enhanced chemiluminescence (ECL) reagent (Bio-Rad) and imaged using the iBright^TM CL1500 Imaging System (Thermo Fisher Scientific). Densitometric analysis was performed using the software ImageJ (NIH), and band intensities were normalized to HSP90 expression to ensure consistent protein quantification across all samples."}, "Dhrs9": {"test_system": "Dhrs9", "experiment": "Western blot of liver tissue", "assay_type": "in vivo, C57BL/6J mice", "conditions": "15 days post-treatment, minoxidil 1% topical, finasteride 1 mg/kg oral", "procedure": "as §1, §2, §3, §4"}, "liver tissue": {"test_system": "liver tissue", "experiment": "Safety observation and liver H&E histology after 15-day treatment", "assay_type": "in vivo, C57BL/6J mice", "conditions": "mice, oral BSE or finasteride"}, "β-catenin": {"test_system": "β-catenin", "experiment": "Western blot of dorsal skin", "assay_type": "in vivo, C57BL/6J mice", "conditions": "15 days post-treatment; minoxidil 1% topical, finasteride 1 mg/kg oral", "procedure": "as §1, §2, §3, §4"}, "Lef-1": {"test_system": "Lef-1", "experiment": "Western blot of dorsal skin", "assay_type": "in vivo, C57BL/6J mice", "conditions": "15 days post-treatment; minoxidil 1% topical, finasteride 1 mg/kg oral; neither significant", "procedure": "as §1, §2, §3, §4"}, "DHT": {"test_system": "DHT", "experiment": "Plasma DHT level (ELISA)", "assay_type": "in vivo, C57BL/6J mice", "conditions": "AGA mice; minoxidil 1% topical, finasteride 1 mg/kg oral", "procedure": "Blood samples were collected in heparinized tubes and centrifuged at 13,000× g for 5 min at 4 °C to isolate plasma. The plasma was stored at −80 °C until analysis for testosterone and DHT concentrations.\nPlasma samples collected after the final dose of once-daily treatments were used to quantify serum testosterone and DHT levels using commercial ELISA kits: the Mouse Testosterone ELISA Kit and Mouse DHT ELISA Kit (LifeSpan BioSciences, Inc., Seattle, WA, USA). All assays were conducted following the manufacturer’s protocols."}, "[1]": {"test_system": "testosterone-induced AGA mouse model", "experiment": "In vivo hair regrowth efficacy", "set-up": "species or system C57BL/6J mice", "conditions": "finasteride 1 mg/kg oral; for hair regrowth (coverage of the telogen area) / telogen-to-anagen conversion (telogen area transitioning): day 6; for hair regrowth (coverage of the telogen area) / telogen-to-anagen conversion (telogen area transitioning) / anagen area / hair regrowth / increase in hair follicle length compared to the untreated group / increase in hair weight compared to the untreated group: minoxidil 1% topical; for telogen-to-anagen conversion (telogen area transitioning): once daily", "procedure": "On day 6, dorsal hair was removed from all mice. All mice were anesthetized using 3% isoflurane in 100% oxygen at a flow rate of 0.8 L/min, and the suppression of deep pedal reflexes was confirmed in the mice. Then, the desired dorsal region was shaved using electric clippers, followed by the application of rosin wax. After 2 min, the rosin wax was removed with the help of adhesive tape. The application of rosin wax was repeated one more time to completely remove the few remaining hairs.\nTestosterone-treated mice were then randomly assigned to six groups (n = 6 per group). The first group served as the negative control and only received the vehicle.\nHair regrowth was visually monitored and photographed on days 0, 3, 6, 9, 12, and 15. Regrowth progression was quantitatively assessed using the software ImageJ (version 1.54p; National Institutes of Health, Bethesda, MD, USA) by measuring the areas corresponding to telogen-phase skin (pink), anagen transition zones (black), and fully covered hair regions. On day 15, the regrown dorsal hair was trimmed and weighed using an analytical balance to assess total hair mass. To evaluate hair follicle length, mice were first anesthetized using 3% isoflurane in 100% oxygen at a flow rate of 0.8 L/min to minimize movement and distress. The dorsal skin area was then cleaned with 70% ethanol to prevent contamination. Using sterile fine-tipped forceps, approximately 5–20 hairs were grasped close to the skin surface and swiftly plucked in the direction of hair growth to minimize follicular damage. Only hair shafts with intact follicular bulbs were selected for analysis. This procedure was repeated at three distinct dorsal sites per animal to obtain a representative sampling of hair regrowth. Finally, the lengths of selected hair follicles were measured microscopically."}, "[2]": {"test_system": "CCD-986sk dermal fibroblasts", "experiment": "In vitro cell proliferation assay (WST-1)"}, "HDP cells [3]": {"test_system": "HDP cells", "experiment": "In vitro scratch wound recovery assay", "assay_type": "cell-based, human", "procedure": "No. BA-045855; Sartorius AG, […], Germany). […] Sartorius AG), following the manufacturer's instructions. Detached cells were removed by washing twice with PBS (pH 7.4). […] All treatments were performed in triplicate, including a vehicle control. […] Wound closure was quantified using the Incucyte® Scratch Wound Analysis Software Module, which calculates relative wound density (%) by comparing cell density within the wound area to that of the surrounding monolayer, providing an objective measure of cell migration and proliferation over time."}, "HDP cells [4]": {"test_system": "HDP cells", "experiment": "In vitro cell proliferation assay (WST-1)", "assay_type": "cell-based, human"}, "HaCaT keratinocytes": {"test_system": "HaCaT keratinocytes", "experiment": "In vitro cell proliferation assay (WST-1)"}}, "data": [{"smiles": "CC(C)(C)NC(=O)[C@H]1CC[C@H]2[C@@H]3CC[C@H]4NC(=O)C=C[C@]4(C)[C@H]3CC[C@]12C", "note": "[finasteride]", "values": [{"measurement": "hepatic Akr1c21 protein expression", "setting": "Akr1c21", "result": "markedly upregulated"}, {"measurement": "hepatic Dhrs9 protein expression", "setting": "Dhrs9", "result": "markedly upregulated"}, {"measurement": "physical abnormalities during treatment", "setting": "liver tissue", "result": "no physical abnormalities"}, {"measurement": "β-catenin expression in dorsal skin", "setting": "β-catenin", "result": "significantly restored"}, {"measurement": "Lef-1 expression in dorsal skin", "setting": "Lef-1", "result": "no such trend"}, {"measurement": "reduction of plasma DHT compared to the untreated control", "setting": "DHT", "result": 2.38, "unit": "fold"}, {"measurement": "hair regrowth (coverage of the telogen area)", "setting": "[1]", "result": 7.76, "unit": "%"}, {"measurement": "telogen-to-anagen conversion (telogen area transitioning)", "setting": "[1]", "result": 85.8, "unit": "%"}, {"measurement": "telogen area", "setting": "[1]; day 9", "result": 6.94, "unit": "%"}, {"measurement": "anagen area", "setting": "[1]; day 9", "result": 93.1, "unit": "%"}, {"measurement": "hair regrowth", "setting": "[1]; day 9", "result": 54.2, "unit": "%"}, {"measurement": "hair regrowth", "setting": "[1]; day 15", "result": 99.0, "unit": "%"}, {"measurement": "increase in hair follicle length compared to the untreated group", "setting": "[1]; day 15", "result": 3.00, "unit": "fold"}, {"measurement": "increase in hair weight compared to the untreated group", "setting": "[1]; day 15", "result": 165, "unit": "%"}]}, {"smiles": "Nc1cc(N2CCCCC2)nc(N)[n+]1[O-]", "note": "[minoxidil]", "values": [{"measurement": "concentration at which proliferation decreased (dose-dependent cytotoxicity)", "setting": "[2]", "result": "≥ 10000", "unit": "ng/mL"}, {"measurement": "increase in cell proliferation", "setting": "[2]; 0.5 µg/mL", "result": 184, "unit": "%"}, {"measurement": "increase in cell proliferation", "setting": "[2]; 1 µg/mL", "result": 173, "unit": "%"}, {"measurement": "proliferation at lower concentrations", "setting": "[2]; 0.01–0.1 µg/mL", "result": "significantly enhanced proliferation"}, {"measurement": "hepatic Akr1c21 protein expression", "setting": "Akr1c21", "result": "no significant effect"}, {"measurement": "hepatic Dhrs9 protein expression", "setting": "Dhrs9", "result": "no significant effect"}, {"measurement": "scratch wound closure", "setting": "HDP cells [3]; 0.1 µg/mL, 16 h", "result": 68.8, "unit": "%"}, {"measurement": "scratch wound closure", "setting": "HDP cells [3]; 0.1 µg/mL, 20 h", "result": 77.7, "unit": "%"}, {"measurement": "scratch wound closure", "setting": "HDP cells [3]; 0.1 µg/mL, 24 h", "result": 94.7, "unit": "%"}, {"measurement": "scratch wound closure", "setting": "HDP cells [3]; 1 µg/mL, 16 h", "result": 49.2, "unit": "%"}, {"measurement": "scratch wound closure", "setting": "HDP cells [3]; 25 µg/mL, 16 h", "result": 29.2, "unit": "%"}, {"measurement": "concentration above which proliferation markedly declined", "setting": "HDP cells [4]", "result": "above 10 µg/mL"}, {"measurement": "β-catenin expression in dorsal skin", "setting": "β-catenin", "result": "significantly restored"}, {"measurement": "Lef-1 expression in dorsal skin", "setting": "Lef-1", "result": "positive trend"}, {"measurement": "concentration above which cytotoxic effects (decreased cell viability) were seen", "setting": "HaCaT keratinocytes", "result": "above 10 µg/mL"}, {"measurement": "reduction of plasma DHT compared to the untreated control", "setting": "DHT", "result": "no detectable effect"}, {"measurement": "hair regrowth (coverage of the telogen area)", "setting": "[1]", "result": 0.7, "unit": "%"}, {"measurement": "telogen-to-anagen conversion (telogen area transitioning)", "setting": "[1]", "result": 65.0, "unit": "%"}, {"measurement": "anagen area", "setting": "[1]; day 9", "result": 69.8, "unit": "%"}, {"measurement": "hair regrowth", "setting": "[1]; day 9", "result": 4.79, "unit": "%"}, {"measurement": "hair regrowth", "setting": "[1]; day 15", "result": 95.0, "unit": "%"}, {"measurement": "increase in hair follicle length compared to the untreated group", "setting": "[1]; day 15", "result": 2.24, "unit": "fold"}, {"measurement": "increase in hair weight compared to the untreated group", "setting": "[1]; day 15", "result": 82.5, "unit": "%"}]}]}
